Experimental data published in US6967254B2, “Substituted heterocyclic compounds and methods of use” (Amgen Inc., priority 2002, dated 2005).

The molecules below were run on LPS induced TNF release, THP1 cells (assay: Lipopolysaccharide-Activated THP1 Cell TNF Production Assay (LPS induced TNF release)). Conditions: Homo sapiens, THP-1, bacterial LPS, 3 h at 37° C., secreted TNF-α read by ECL.
Format: cell-based
Experimental: Lipopolysaccharide-Activated THP1 Cell TNF Production Assay
THP1 cells are resuspended in fresh THP1 media (RPMI 1640, 10% heat-inactivated FBS, 1×PGS, 1×NEAA, plus 30 μM βME) at a concentration of 1E6/mL. One hundred microliters of cells per well are plated in a polystyrene 96-well tissue culture. One microgram per mL of bacterial LPS is prepared in THP1 media and is transferred to the wells. Test compounds are dissolved in 100% DMSO and are serially diluted 3 fold in a polypropylene 96-well microtiter plate (drug plate). HI control and LO control wells contain only DMSO. One microliter of test compound from the drug plate followed by 10 μL of LPS are transferred to the cell plate. The treated cells are induced to synthesize and secrete TNF-α at 37° C. for 3 h. Forty microliters of conditioned media are transferred to a 96-well polypropylene plate containing 110 μL of ECL buffer (50 mM Tris-HCl pH 8.0, 100 mM NaCl, 0.05% Tween 20, 0.05% NaN3 and 1% FBS) supplemented with 0.44 nM MAB610 monoclonal Ab (R&D Systems), 0.34 nM ruthenylated AF210NA polyclonal Ab (R&D Systems) and 44 μg/mL sheep anti-mouse M280 Dynabeads (Dynal). After a 2 h incubation at room temperature with shaking, the reaction is read on the ECL M8 Instrument (IGEN Inc.). A low voltage is applied to the ruthenylated TNF-α: immune complexes, which in the presence of TPA (the active component in Origlo), results in a cyclical redox reaction generating light at […]. The amount of secreted TNF-α in the presence of compound compared with that in the presence of DMSO vehicle alone (HI control) is calculated using the formula: % control (POC)=(cpd−average LO)/(average HI−average LO)*100. Data (consisting of POC and inhibitor concentration in AM) is fitted to a 4-parameter equation (y=A+((B−A)/(1+((x/C)^D))), where A is the minimum y (POC) value, B is the maximum y (POC), C is the x (cpd concentration) at the point of inflection and D is the slope factor) using a Levenburg-Marquardt non-linear regression algorithm.

Row | Compound | IC50
1 | O=c1[nH]n(C2CCNCC2)c(-c2ccncc2)c1-c1ccc(Cl)cc1 [Example 5, 4-(4-Chloro-phenyl)-1-piperidin-4-yl-5-pyridin-4-yl-1,2-dihydro-pyrazol-3-one] | ≤ 20 µM
2 | CN1CCC(n2[nH]c(=O)c(-c3ccc(Cl)cc3)c2-c2ccncc2)CC1 [Example 10, 4-(4-Chlorophenyl)-1-(1-methyl-piperidin-4-yl)-5-pyridin-4-yl-1,2-dihydro-pyrazol-3-one] | ≤ 20 µM
3 | CN1CCCC(n2[nH]c(=O)c(-c3ccc(Cl)cc3)c2-c2ccncc2)C1 (stereo not shown) [Example 11, 4-(4-Chlorophenyl)-1-(1-methyl-piperidin-3-yl)-5-pyridin-4-yl-1,2-dihydro-pyrazol-3-one] | ≤ 20 µM
4 | CC(C)n1[nH]c(=O)c(-c2ccc(Cl)c(Cl)c2)c1-c1ccncc1 [Example 16, 4-(3,4-Dichloro-phenyl)-1-isopropyl-5-pyridin-4-yl-1,2-dihydro-pyrazol-3-one] | ≤ 20 µM

The next lines start with the values.

Row | IC50 | Compound
5 | ≤ 20 µM | O=c1[nH]n(C2CCCNC2)c(-c2ccncc2)c1-c1ccc(Cl)cc1 (stereo not shown) [Example 6, 4-(4-Chloro-phenyl)-1-piperidin-3-yl-5-pyridin-4-yl-1,2-dihydro-pyrazol-3-one]
6 | ≤ 20 µM | CC(C)N1CCC(n2[nH]c(=O)c(-c3ccc(Cl)cc3)c2-c2ccncc2)CC1 [Example 12, 4-(4-Chlorophenyl)-1-(1-isopropyl-piperidin-4-yl)-5-pyridin-4-yl-1,2-dihydro-pyrazol-3-one]
7 | ≤ 20 µM | O=c1[nH][nH]c(-c2ccncc2)c1-c1ccc(Cl)c(Cl)c1 [Example 15, 4-(3,4-Dichloro-phenyl)-5-pyridin-4-yl-1,2-dihydro-pyrazol-3-one]
8 | ≤ 20 µM | CC(C)n1c(-c2ccncc2)c(-c2ccc(Cl)c(Cl)c2)c(=O)n1C [Example 17, 4-(3,4-Dichloro-phenyl)-1-isopropyl-2-methyl-5-pyridin-4-yl-1,2-dihydro-pyrazol-3-one]
9 | ≤ 20 µM | Cn1c(=O)c(-c2ccc(Cl)c(Cl)c2)c(-c2ccncc2)n1CC1CCCCC1 [Example 19, 1-Cyclohexylmethyl-4-(3,4-dichloro-phenyl)-2-methyl-5-pyridin-4-yl-1,2-dihydro-pyrazol-3-one]
10 | ≤ 20 µM | NC1CCC(n2[nH]c(=O)c(-c3ccc(Cl)cc3)c2-c2ccncc2)CC1 (stereo not shown) [Example 20, 1-(4-Aminocyclohexyl)-4-(4-chlorophenyl)-5-pyridin-4-yl-1,2-dihydropyrazol-3-one]
